Results published in US12350260B2 (priority 2019, dated 2025).
Where “and” joins values, the source holds several entries; their conditions need not be identical. Identical values can stand only once.

Key:
PAR-2 [1] = target: T1, PAR-2 (Homo sapiens, UniProt P55085); conditions: cited from earlier work
PAR-2 [2] = target: T1, PAR-2; conditions: cited from earlier work; remark: listed apart in the source
[3] = system: co-cultured sensory neurons and keratinocytes; type: cell-based, rat DRG neurons, human keratinocytes
sensory neurons = type: cell-based, rat
[4] = system: co-cultured DRG neurons and keratinocytes; type: cell-based, rat DRG neurons, human keratinocytes
DRG neurons = type: cell-based, rat
[5] = system: primary human epidermal keratinocytes; type: cell-based
PAR-2 [6] = type: cell-based, rat
[7] = not told; cited from earlier work
[8] = in vivo, cited from earlier work

T1 sequence (P55085 26-397): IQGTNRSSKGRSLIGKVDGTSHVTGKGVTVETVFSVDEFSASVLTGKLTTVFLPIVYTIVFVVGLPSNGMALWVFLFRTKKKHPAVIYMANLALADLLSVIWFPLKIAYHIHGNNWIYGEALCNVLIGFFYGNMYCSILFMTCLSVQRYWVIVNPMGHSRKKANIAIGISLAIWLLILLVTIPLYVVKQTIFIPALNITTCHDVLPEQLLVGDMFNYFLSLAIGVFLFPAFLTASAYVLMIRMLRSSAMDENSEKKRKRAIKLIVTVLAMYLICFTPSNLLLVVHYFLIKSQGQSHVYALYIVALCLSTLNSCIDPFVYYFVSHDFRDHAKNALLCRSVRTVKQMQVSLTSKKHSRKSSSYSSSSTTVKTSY

Compound: 2-aminothiazol-4-yl-LIGRL-NH2 ({2‑aminothiazol‑4‑yl}-LIGRL-NH2)
- ERK1/2 phosphorylation (PAR-2 [1]): inhibit
- PAR-2 calcium signaling / calcium mobilization (PAR-2 [2]): inhibit

Compound: COc1ccc(CCN2CCC(Nc3nc4ccccc4n3Cc3ccc(F)cc3)CC2)cc1 [Astemizole]
- ERK1/2 phosphorylation (PAR-2 [1]): inhibit
- PAR-2 calcium signaling / calcium mobilization (PAR-2 [2]): inhibit

Compound: Cl.Cn1cc(C2=C(c3c4n(c5ccccc35)CCC(CN)C4)C(=O)NC2=O)c2ccccc21 (centres unmarked) [BimX, Bisindolylmaleimide X hydrochloride]
- PbTx-1-induced SP release with pre-treatment (normalized levels) [3]: 37.4±5.9%
- normalized amplitude values in each phase (FIGS. 9B, 9D, 9F) (sensory neurons): No significant modification
- normalized percentage of cells responding to PbTx-1 with the first peak (sensory neurons): did not decrease
- normalized percentage of cells responding to PbTx-1 with the second peak (sensory neurons): 67.7±7.5%

Compound: COc1ccccc1OCCNCC(O)COc1cccc2[nH]c3ccccc3c12 (centres unmarked) [Carvedilol]
- ERK1/2 phosphorylation (PAR-2 [1]): inhibit
- PAR-2 calcium signaling / calcium mobilization (PAR-2 [2]): inhibit

Compound: CCC(C)[C@H](NC(=O)[C@H](CC1CCCCC1)NC(=O)c1ccno1)C(=O)N1CCC2(CCc3ccccc32)CC1 (some centres unmarked) [GB83]
- PbTx-1-induced SP release with pre-treatment (normalized levels) [3]: 47±8.2%
- PbTx-1-induced SP release, decreased to (% of PbTx-1 alone) [3]: 40.9±7.4%
- inhibitory effect on PbTx-1-induced SP release [3]: 45.3±6.9%
- P-CTX-2-induced SP release, reduced to (% of P-CTX-2 alone) [4]: 15.0±7.9%
- normalized percentage of cells responding to PbTx-1 with the first peak (sensory neurons): 75.7±7.28%
- normalized percentage of cells responding to PbTx-1 with the plateau (sensory neurons): 37.7±7.7%
- normalized percentage of cells responding to PbTx-1 with the second peak (sensory neurons): 48.9±7.38%
- PAR-2 calcium signaling / calcium mobilization (PAR-2 [2]): inhibit
- normalized amplitude of the first peak in responding cells (% of P-CTX-2 alone) (DRG neurons): 31.2±4.2%
- normalized amplitude values of the plateau in responding cells (% of P-CTX-2 alone) (DRG neurons): 50.1±8.7%
- normalized percentage of cells responding with a second peak (% of P-CTX-2 alone) (DRG neurons): 16.7±4.1%
- normalized percentage of cells responding with the first peak (% of P-CTX-2 alone) (DRG neurons): 34.5±10.5%
- normalized percentage of neurons responding with a plateau (compared to P-CTX-2 alone) (DRG neurons): 7.9±3.3%
- normalized second peak amplitude in responding cells (% of P-CTX-2 alone) (DRG neurons): 27.2±5.0%

Compound: CC[C@H](C)[C@H](NC(=O)[C@H](CC1CCCCC1)NC(=O)c1ccno1)C(=O)N1CCC2(CCc3ccccc32)CC1 [GB88]
- PAR-2 calcium signaling / calcium mobilization (PAR-2 [2]): inhibit

Compound: Cc1c(C(=O)Nc2cccc(C(F)(F)F)c2)cc(-c2ccccc2)n1CCCN1CCOCC1 [HC-067047]
- PbTx-1-induced SP release with pre-treatment (normalized levels) [3]: 58.7±14.5% and 41.3±14.5%
- normalized amplitude values in each phase (FIGS. 9B, 9D, 9F) (sensory neurons): No significant modification
- normalized percentage of cells responding to PbTx-1 with the first peak (sensory neurons): 59.4±11.5%
- normalized percentage of cells responding to PbTx-1 with the plateau (sensory neurons): 35.0±16.1%
- normalized percentage of cells responding to PbTx-1 with the second peak (sensory neurons): 35.6±11.5%

Compound: CCOC(=O)N1CCC(=C2c3ccc(Cl)cc3CCc3cccnc32)CC1 [Loratadine]
- ERK1/2 phosphorylation (PAR-2 [1]): inhibit
- PAR-2 calcium signaling / calcium mobilization (PAR-2 [2]): inhibit

Compound: CCc1nn(CCCN2CCN(c3cccc(Cl)c3)CC2)c(=O)n1CCOc1ccccc1 [Nefazodone]
- ERK1/2 phosphorylation (PAR-2 [1]): inhibit
- PAR-2 calcium signaling / calcium mobilization (PAR-2 [2]): inhibit

Compound: NC1=N[C@H](O)[C@H]2[C@H]3O[C@]4(O)O[C@@H]([C@@H](O)[C@@]2(N1)[C@@H]4O)[C@]3(O)CO [TTX, Tetrodotoxin]
- P-CTX-2-induced SP release, reduced to (% of P-CTX-2 alone) [4]: 29.3±7.3% and 53.1±11.3%
- average ratio of the P-CTX-2-mediated calcium signal (ΔF/F0) [5]: 0.34±0.11
- decrease of the average ratio of the P-CTX-2-mediated calcium signal [5]: approximately 70%
- normalized amplitude of the second peak (sensory neurons): 3.4±3.4%
- normalized percentage of cells responding to PbTx-1 with the first peak (sensory neurons): 65.20±14.50% and 34.40±21.24%
- membrane expression of PAR-2 (PAR-2 [6]): 95.3±4.9% and 92.7±1.3%
- normalized amplitude of the first peak in responding cells (% of P-CTX-2 alone) (DRG neurons): 53.6±8.0% and 47.8±7.2%
- normalized amplitude values of the plateau in responding cells (% of P-CTX-2 alone) (DRG neurons): 53.2±1.3% and 84.8±6.6%
- normalized percentage of cells responding with the first peak (% of P-CTX-2 alone) (DRG neurons): 34.9±13.4% and 41.6±12.5%
- normalized second peak amplitude in responding cells (% of P-CTX-2 alone) (DRG neurons): 33.7±3.5% and 61.9±16.1%

Compound: C1CCC[C@H]2CCCN3CC[C@@H](CCCCCC[C@@H]4CCCN5CC[C@@H](CC1)O[C@@H]45)O[C@@H]23 [Xestospongin C]
- PbTx-1-induced SP release with pre-treatment (normalized levels) [3]: 35.5±9.7%
- normalized amplitude values in each phase (FIGS. 9B, 9D, 9F) (sensory neurons): No significant modification
- normalized percentage of cells responding to PbTx-1 with the first peak (sensory neurons): did not decrease
- normalized percentage of cells responding to PbTx-1 with the second peak (sensory neurons): 62.5±14.7%

Compound: CC(C)C[C@H](NC(=O)[C@H](Cc1ccccc1)NC(=O)OCc1ccccc1)C(=O)C=O [Z-FL-COCHO, Cbz-Phe-Leu-COCHO]
- PbTx-1-induced SP release, decreased to (% of PbTx-1 alone) [3]: 80.4±4.1%
- P-CTX-2-induced SP release, reduced to (% of P-CTX-2 alone) [4]: 13.1±6.1%
- normalized percentage of cells responding to PbTx-1 with the first peak (sensory neurons): 48.2±11.1%
- normalized percentage of cells responding to PbTx-1 with the plateau (sensory neurons): 41.0±13.8%
- normalized percentage of cells responding to PbTx-1 with the second peak (sensory neurons): 45.2±11.1%
- cell permeability [7]: poorly cell-permeant

Compound: OC[C@@H](O)[C@@H](O)[C@H](O)[C@H](O)CO [mannitol]
- effectiveness in severe cases of poisoning supported early ([8]; iv): effectiveness
- effectiveness in non-severe forms of intoxication [8]: not effective
